From patent US20030215462A1, “Use of UGT inhibitors to increase bioavailability” (priority 2001, published 2003)
Values joined by “and” are separate entries in the source; they are usually repeats but may differ in a detail not shown here. Identical values can stand only once.

Tests used:
Format in all cases: biochemical
[1] = system: UGT enzymes of human liver microsomes; assay: Kinetic and Ki studies of inhibitors of 7-HFC glucuronidation in human liver microsomes; conditions: for Inhibition Type: highest inhibitor concentration only; for Ki: highest inhibitor concentration only (tannic acid 0, 25; octyl gallate and gallocatechin gallate 0, 200 μM), read-out: Ki (apparent), 7-HFC glucuronidation
[2] = system: UGT enzymes of pooled human jejunum microsomes; assay: Inhibition of 2ME2 glucuronidation (MG1) in pooled human jejunum microsomes; conditions: jejunum HJ61, 2ME2 50 μM
Excerpt: Compounds were eluted using a binary solvent gradient system where solvent A was dilute phosphoric acid (pH 3) and solvent B was 80:20 acetonitrile-methanol. […] Detection was at 280 nm.

[3] = system: T1, UGT enzymes of human liver microsomes; assay: Inhibition of labetalol glucuronidation (LG1, LG2) in human liver microsomes; conditions: labetalol 50 μM
T1 construct: residual metabolism (percentage of control), labetalol LG1; other: labetalol 50 μM; residual metabolism (percentage of control), labetalol LG1; residual metabolism (percentage of control), labetalol LG2; inhi
Protocol: Supernatants were analyzed by HPLC with fluorescence detection.
Compounds were eluted using a binary solvent gradient system where solvent A was 5:5:90 tetrahydrofuran-acetonitrile-(NH4)2HPO4 50 mM, while solvent B was 25:25:50 tetrahydrofuran-acetonitrile-(NH4)2HPO4 50 mM. Solvent flow rate was 0.75 ml/min and the column temperature was ambient. […] Labetalol and metabolites were measured by fluorescence detection using a Jasco model FP920 detector. Excitation and emission wavelengths were 370 nm 418 nm respectively. Retention times for salicylamide internal standard and labetalol were 6.6 min and 15.0 min respectively.

[4] = molecular target: T2, UGT enzymes of human liver microsomes; assay: Inhibition of 7-HFC glucuronidation in human liver microsomes; conditions: for IC50 / % of control metabolism (SD, n = 3), 7-HFC glucuronidation: 7-HFC 50 μM, 15 min; for IC50: 1 mM UDPGA; for % of control metabolism (SD, n = 3), 7-HFC glucuronidation: human liver microsomes 100 μg/ml
T2 construct: percentage of control metabolism, 7-HFC glucuronidation; percentage of control metabolism, 7-HFC glucuronidation

Inhibition Type [1]	Ki [1] [µM]	residual metabolism (% of control), 2ME2 MG1 ([2]; inhibitor 50 μM)	IC50 [4] [µM]	percentage of control metabolism, 7-HFC glucuronidation ([4]; inhibitor 25 μM)	% of control metabolism (SD, n = 3), 7-HFC glucuronidation ([4]; inhibitor 25 μM)	percentage of control metabolism, 7-HFC glucuronidation ([4]; inhibitor 50 μM)	% of control metabolism (SD, n = 3), 7-HFC glucuronidation ([4]; inhibitor 50 μM)	percentage of control metabolism, 7-HFC glucuronidation ([4]; inhibitor 100 μM)	% of control metabolism (SD, n = 3), 7-HFC glucuronidation ([4]; inhibitor 100 μM)	percentage of control metabolism, 7-HFC glucuronidation ([4]; inhibitor 200 μM)	% of control metabolism (SD, n = 3), 7-HFC glucuronidation ([4]; inhibitor 200 μM)	percentage of control metabolism, 7-HFC glucuronidation ([4]; inhibitor 500 μM)	% of control metabolism (SD, n = 3), 7-HFC glucuronidation ([4]; inhibitor 500 μM)	Compound	residual metabolism (% of control), 2ME2 MG1 ([2]; inhibitor 10 μM)	residual metabolism (% of control), 2ME2 MG1 ([2]; inhibitor 25 μM)	residual metabolism (% of control), 2ME2 MG1 ([2]; inhibitor 100 μM)	residual metabolism (percentage of control), labetalol LG1 ([3]; inhibitor 50 μM)	residual metabolism (percentage of control), labetalol LG2 ([3]; inhibitor 50 μM)	also measured
Non-competitive	5.4 ± 0.4	<LOQ	10	14 (1) % and 18 (0) %	14 (1), % and 18 (0) %	2 (0) %	2 (0) %	0 (0) %	0 (0) %	0 (0) %	0 (0) %	0 (0) %	0 (0) %	O=C(OC[C@H]1O[C@@H](OC(=O)c2cc(O)c(O)c(OC(=O)c3cc(O)c(O)c(O)c3)c2)[C@H](OC(=O)c2cc(O)c(O)c(OC(=O)c3cc(O)c(O)c(O)c3)c2)[C@@H](OC(=O)c2cc(O)c(O)c(OC(=O)c3cc(O)c(O)c(O)c3)c2)[C@@H]1OC(=O)c1cc(O)c(O)c(OC(=O)c2cc(O)c(O)c(O)c2)c1)c1cc(O)c(O)c(OC(=O)c2cc(O)c(O)c(O)c2)c1 [Tannic acid]	42 (1) %	5 (0) %	–	42 (1) %	37 (2) %	residual metabolism (% of control), 2ME2 MG1 ([2]; inhibitor 2 μM): 63 (1) %; residual metabolism (% of control), 2ME2 MG1 ([2]; inhibitor 5 μM): 49 (1) %; residual metabolism (percentage of control), labetalol LG1 ([3]; inhibitor 100 μM): 19 (1) % and 21 (1) %; residual metabolism (percentage of control), labetalol LG2 ([3]; inhibitor 100 μM): 9 (0) % and 13 (3) %
strictly non-competitive	16 ± 2	121 (7) %	~75	86 (1) %	86 (1) %	65 (0) %	65 (0) %	26 (1) % and 29 (1) %	26 (1), % and 29 (1) %	6 (0) %	6 (0) %	0.1 (0.1) %	0.1 (0.1) %	CCCCCCCCOC(=O)c1cc(O)c(O)c(O)c1 [Octyl gallate]	–	–	58 (3) %	–	–	–

Compound	Inhibition Type [1]	Ki [1] [µM]	residual metabolism (% of control), 2ME2 MG1 ([2]; inhibitor 50 μM)	IC50 [4] [µM]	percentage of control metabolism, 7-HFC glucuronidation ([4]; inhibitor 25 μM)	% of control metabolism (SD, n = 3), 7-HFC glucuronidation ([4]; inhibitor 25 μM)	percentage of control metabolism, 7-HFC glucuronidation ([4]; inhibitor 50 μM)	% of control metabolism (SD, n = 3), 7-HFC glucuronidation ([4]; inhibitor 50 μM)	percentage of control metabolism, 7-HFC glucuronidation ([4]; inhibitor 100 μM)	% of control metabolism (SD, n = 3), 7-HFC glucuronidation ([4]; inhibitor 100 μM)	percentage of control metabolism, 7-HFC glucuronidation ([4]; inhibitor 200 μM)	% of control metabolism (SD, n = 3), 7-HFC glucuronidation ([4]; inhibitor 200 μM)	percentage of control metabolism, 7-HFC glucuronidation ([4]; inhibitor 500 μM)	% of control metabolism (SD, n = 3), 7-HFC glucuronidation ([4]; inhibitor 500 μM)	residual metabolism (% of control), 2ME2 MG1 ([2]; inhibitor 10 μM)	residual metabolism (% of control), 2ME2 MG1 ([2]; inhibitor 25 μM)	residual metabolism (% of control), 2ME2 MG1 ([2]; inhibitor 100 μM)	residual metabolism (percentage of control), labetalol LG1 ([3]; inhibitor 50 μM)	residual metabolism (percentage of control), labetalol LG2 ([3]; inhibitor 50 μM)	also measured
O=C(O[C@@H]1Cc2c(O)cc(O)cc2O[C@H]1c1cc(O)c(O)c(O)c1)c1cc(O)c(O)c(O)c1 [Gallocatechin gallate]	Non-competitive	40 ± 3	31 (1) %	100	80 (2) %	80 (2) %	68 (2) %	68 (2) %	54 (1) % and 46 (2) %	54 (1) % and 46 (2) %	25 (0) %	25 (0) %	0 (0) %	0 (0) %	69 (3) %	51 (2) %	9 (1) %	60 (5) %	55 (8) %	Inhibition Type ([1]; listed as gallocatechin gallate): strictly non-competitive
